This note sets out measurements from PubChem BioAssay AID1259407 (Chemical Carcinogenesis Research Information System (CCRIS), 2018).

This data set has as its system CCRIS mutagenicity, Ames/micronucleus/aberration tests. Put plainly: CCRIS mutagenicity studies.
Where [1] appears, read: Test System: AMES SALMONELLA TYPHIMURIUM, Strain/Indicator: TA98, Metabolic Activation: NONE, Method: PREINCUBATION
[2] abbreviates: Test System: AMES SALMONELLA TYPHIMURIUM, Strain/Indicator: TA100, Metabolic Activation: NONE, Method: PREINCUBATION
Where [3] appears, read: Test System: AMES SALMONELLA TYPHIMURIUM, Strain/Indicator: TA1535, Metabolic Activation: NONE, Method: PREINCUBATION
Setting [4] is: Test System: AMES SALMONELLA TYPHIMURIUM, Strain/Indicator: TA1537, Metabolic Activation: NONE, Method: PREINCUBATION

The source made the active and inactive calls. The rule behind the calls is not given here.

Consider `N#CCBr`, for which the mutagenic call reads like this: (Test System: AMES SALMONELLA TYPHIMURIUM, Strain/Indicator: TA98, Metabolic Activation: HAMSTER, LIVER, S-9, AROCLOR 1254 (10%), Method: PREINCUBATION) “inactive; negative”; under setting [1], “inactive; negative”; (Test System: AMES SALMONELLA TYPHIMURIUM, Strain/Indicator: TA98, Metabolic Activation: RAT, LIVER, S-9, AROCLOR 1254 (10%), Method: PREINCUBATION) “inactive; negative”; (Test System: AMES SALMONELLA TYPHIMURIUM, Strain/Indicator: TA100, Metabolic Activation: HAMSTER, LIVER, S-9, AROCLOR 1254 (10%), Method: PREINCUBATION) “inactive; negative”; (Test System: AMES SALMONELLA TYPHIMURIUM, Strain/Indicator: TA100, Metabolic Activation: NONE, Method: FLUCTUATION TEST) “inactive; negative”; under setting [2], “inactive; negative”. Also, the mutagenic call reads like this: (Test System: AMES SALMONELLA TYPHIMURIUM, Strain/Indicator: TA100, Metabolic Activation: RAT, LIVER, S-9, AROCLOR 1254 (10%), Method: PREINCUBATION) “inactive; negative”; (Test System: AMES SALMONELLA TYPHIMURIUM, Strain/Indicator: TA100, Metabolic Activation: RAT, LIVER, S-9, AROCLOR 1254, Method: FLUCTUATION TEST) “active; positive”; (Test System: AMES SALMONELLA TYPHIMURIUM, Strain/Indicator: TA1535, Metabolic Activation: HAMSTER, LIVER, S-9, AROCLOR 1254 (10%), Method: PREINCUBATION) “inactive; negative”; under setting [3], “inactive; negative”; (Test System: AMES SALMONELLA TYPHIMURIUM, Strain/Indicator: TA1535, Metabolic Activation: RAT, LIVER, S-9, AROCLOR 1254 (10%), Method: PREINCUBATION) “inactive; negative”; (Test System: AMES SALMONELLA TYPHIMURIUM, Strain/Indicator: TA1537, Metabolic Activation: HAMSTER, LIVER, S-9, AROCLOR 1254 (10%), Method: PREINCUBATION) “inactive; negative”. Moreover, the mutagenic call is, setting by setting: under setting [4], “inactive; negative”; (Test System: AMES SALMONELLA TYPHIMURIUM, Strain/Indicator: TA1537, Metabolic Activation: RAT, LIVER, S-9, AROCLOR 1254 (10%), Method: PREINCUBATION) “inactive; negative”.

Take `CCOc1cc(C=O)ccc1O`: the mutagenic call reads like this: (Test System: AMES SALMONELLA TYPHIMURIUM, Strain/Indicator: TA97, Metabolic Activation: NONE, Method: PREINCUBATION) “inactive; negative”; (Test System: AMES SALMONELLA TYPHIMURIUM, Strain/Indicator: TA97, Metabolic Activation: RAT, LIVER, S-9, AROCLOR 1254, Method: PREINCUBATION) “inactive; negative”; under setting [1], “inactive; negative”; (Test System: AMES SALMONELLA TYPHIMURIUM, Strain/Indicator: TA98, Metabolic Activation: RAT, LIVER, S-9, PHENOBARBITAL AND BETA-NAPHTHOFLAVONE, Method: PREINCUBATION) “inactive; negative”; under setting [2], “inactive; negative”; (Test System: AMES SALMONELLA TYPHIMURIUM, Strain/Indicator: TA100, Metabolic Activation: RAT, LIVER, S-9, PHENOBARBITAL AND BETA-NAPHTHOFLAVONE, Method: PREINCUBATION) “inactive; negative”. In addition, the mutagenic call runs as follows: (Test System: AMES SALMONELLA TYPHIMURIUM, Strain/Indicator: TA102, Metabolic Activation: NONE, Method: PREINCUBATION) “inactive; negative”; (Test System: AMES SALMONELLA TYPHIMURIUM, Strain/Indicator: TA102, Metabolic Activation: RAT, LIVER, S-9, AROCLOR 1254, Method: PREINCUBATION) “inactive; negative”; (Test System: AMES SALMONELLA TYPHIMURIUM, Strain/Indicator: TA102, Metabolic Activation: RAT, LIVER, S-9, PHENOBARBITAL AND BETA-NAPHTHOFLAVONE, Method: PREINCUBATION) “inactive; negative”; (Test System: AMES SALMONELLA TYPHIMURIUM, Strain/Indicator: TA104, Metabolic Activation: NONE, Method: PREINCUBATION) “inactive; negative”; (Test System: AMES SALMONELLA TYPHIMURIUM, Strain/Indicator: TA104, Metabolic Activation: RAT, LIVER, S-9, PHENOBARBITAL AND BETA-NAPHTHOFLAVONE, Method: PREINCUBATION) “inactive; negative”; under setting [3], “inactive; negative”. Besides, the mutagenic call (Test System: AMES SALMONELLA TYPHIMURIUM, Strain/Indicator: TA1535, Metabolic Activation: RAT, LIVER, S-9, PHENOBARBITAL AND BETA-NAPHTHOFLAVONE, Method: PREINCUBATION) was “inactive; negative”; the mutagenic call under setting [4] was “inactive; negative”; the mutagenic call (Test System: AMES SALMONELLA TYPHIMURIUM, Strain/Indicator: TA1537, Metabolic Activation: RAT, LIVER, S-9, PHENOBARBITAL AND BETA-NAPHTHOFLAVONE, Method: PREINCUBATION) was “inactive; negative”; the mutagenic call (Test System: E. COLI, Strain/Indicator: WP2UVRA/PKM101, Metabolic Activation: NONE, Method: PREINCUBATION) is “inactive; negative”; the mutagenic call (Test System: E. COLI, Strain/Indicator: WP2UVRA/PKM101, Metabolic Activation: RAT, LIVER, S-9, PHENOBARBITAL AND BETA-NAPHTHOFLAVONE, Method: PREINCUBATION) is “inactive; negative”; the mutagenic call (Test System: E. COLI, Strain/Indicator: WP2UVRA, Metabolic Activation: NONE, Method: PREINCUBATION) was “inactive; negative”. For the setting “Test System: E. COLI, Strain/Indicator: WP2UVRA, Metabolic Activation: RAT, LIVER, S-9, PHENOBARBITAL AND BETA-NAPHTHOFLAVONE, Method: PREINCUBATION”, the mutagenic call was “inactive; negative”.

Take `CC1c2cc(F)ccc2-c2ccc(F)cc21`: the mutagenic call (Test System: AMES SALMONELLA TYPHIMURIUM, Strain/Indicator: TA100, Metabolic Activation: RAT, LIVER, S-9, AROCLOR 1254, Method: STANDARD PLATE) was “active; positive”.

In the case of `Cn1c(N)nc2cc(Cl)ccc21`, the mutagenic call was “active; positive” (Test System: AMES SALMONELLA TYPHIMURIUM, Strain/Indicator: TA98, Metabolic Activation: RAT, LIVER, S-9, AROCLOR 1254, Method: PREINCUBATION) and “active; positive” (Test System: AMES SALMONELLA TYPHIMURIUM, Strain/Indicator: TA100, Metabolic Activation: RAT, LIVER, S-9, AROCLOR 1254, Method: PREINCUBATION).

In the case of `Oc1c(Cl)cc(Cl)c2cccnc12`, the mutagenic call was “inactive; negative” under setting [1]; “inactive; negative” (Test System: AMES SALMONELLA TYPHIMURIUM, Strain/Indicator: TA98, Metabolic Activation: RAT, LIVER, S-9, Method: PREINCUBATION); “inactive; negative” under setting [2]; “inactive; negative” (Test System: AMES SALMONELLA TYPHIMURIUM, Strain/Indicator: TA100, Metabolic Activation: RAT, LIVER, S-9, Method: PREINCUBATION).

As to `CN(C)CCCNc1c2ccccc2nc2c(Cl)ccc([N+](=O)[O-])c12`, the mutagenic call by setting is: (Test System: AMES SALMONELLA TYPHIMURIUM, Strain/Indicator: TA98, Metabolic Activation: NONE, Method: STANDARD PLATE) “active; positive”; (Test System: AMES SALMONELLA TYPHIMURIUM, Strain/Indicator: TA100, Metabolic Activation: NONE, Method: STANDARD PLATE) “active; positive”.
